Assay results published in US12622948B2 (SUN PHARMACEUTICAL INDUSTRIES LIMITED, priority 2020, dated 2026).
Marks after values point to notes of the source that are not given here. Non-standard residues stand in square brackets, D forms with d. No end group written: not given here. Moiety A = not defined here; Nva = CCC[C@H](N)C(=O)O; Aib = CC(C)(N)C(=O)O

Test system: type 2 diabetic mouse (db/db) model
Assay: Efficacy study in db/db mice at 10 nM/kg dose (blood glucose, body weight, food intake)
Assay type: in vivo
Conditions: for Cumulative food Intake (g) 0-48 hr. vs. Baseline, Mean / Cumulative food Intake (g) 0-96 hr. vs. Baseline, Mean / Delta Blood Glucose (mM) Mean / Body Wt. Change (%) 48 hr. vs. Baseline, Mean / Body Wt. Change (%) 96 hr. vs. Baseline, Mean: 10 nM/kg s.c. single dose
Procedure: The effect of compounds of present invention on blood glucose, food intake and body weight was studied in mice. This study was performed in a type 2 diabetic mouse (db/db) model. […] Baseline blood glucose was measured from all the animals. […] All the animals were administered with test items subcutaneously. […] Delta blood glucose (mM) was calculated.

[1] = Study 4, db/db mice, 0 hr (baseline)
[2] = db/db mice, 10 nM/kg s.c., vs diabetic control
[3] = Study 3, db/db mice, 0 hr (baseline)

Compound	Cumulative food Intake (g) 0-48 hr. vs. Baseline, Mean (Study 4, db/db mice)	Cumulative food Intake (g) 0-96 hr. vs. Baseline, Mean (Study 4, db/db mice)	Delta Blood Glucose (mM) Mean [1] [mM]	Delta Blood Glucose (mM) Mean (Study 4, db/db mice, 4 hr)	Delta Blood Glucose (mM) Mean (Study 4, db/db mice, 8 hr)	Delta Blood Glucose (mM) Mean (Study 4, db/db mice, 12 hr)	Delta Blood Glucose (mM) Mean (Study 4, db/db mice, 24 hr)	Body Wt. Change (%) 48 hr. vs. Baseline, Mean (Study 4, db/db mice, 48 hr)	Delta Blood Glucose (mM) Mean (Study 4, db/db mice, 48 hr)	Delta Blood Glucose (mM) Mean (Study 4, db/db mice, 72 hr) [mM]	Body Wt. Change (%) 96 hr. vs. Baseline, Mean (Study 4, db/db mice, 96 hr)	Delta Blood Glucose (mM) Mean (Study 4, db/db mice, 96 hr) [mM]	Cumulative food Intake (g) 0-48 hr. vs. Baseline, Mean (Study 3, db/db mice)	Cumulative food Intake (g) 0-96 hr. vs. Baseline, Mean (Study 3, db/db mice)	Delta Blood Glucose (mM) Mean [3] [mM]	Delta Blood Glucose (mM) Mean (Study 3, db/db mice, 4 hr)	Delta Blood Glucose (mM) Mean (Study 3, db/db mice, 8 hr)	Delta Blood Glucose (mM) Mean (Study 3, db/db mice, 12 hr)	Delta Blood Glucose (mM) Mean (Study 3, db/db mice, 24 hr)	Body Wt. Change (%) 48 hr. vs. Baseline, Mean (Study 3, db/db mice, 48 hr)	further results
CCCC[C@H](NC(=O)[C@@H](NC(=O)[C@H](CO)NC(=O)[C@H](Cc1ccc(O)cc1)NC(=O)[C@H](CC(=O)O)NC(=O)[C@H](CO)NC(=O)[C@@H](NC(=O)[C@H](Cc1ccccc1)NC(=O)[C@@H](NC(=O)CNC(=O)[C@H](CCC(=O)O)NC(=O)C(C)(C)NC(=O)[C@@H](N)Cc1ccc(O)cc1)[C@@H](C)O)[C@@H](C)O)[C@@H](C)CC)C(=O)N[C@@H](CC(C)C)C(=O)N[C@@H](CC(=O)O)C(=O)N[C@@H](CCCCN)C(=O)N[C@H](C(=O)N[C@@H](C)C(=O)N[C@@H](CCC(N)=O)C(=O)N[C@@H](CCCCNC(=O)COCCOCCNC(=O)C(C)(C)NC(=O)CC[C@H](NC(=O)CCCCCCCCCCCCCCCCCCC(=O)O)C(=O)O)C(=O)N[C@@H](C)C(=O)N[C@@H](Cc1ccccc1)C(=O)N[C@H](C(=O)N[C@@H](CCC(N)=O)C(=O)N[C@@H](Cc1c[nH]c2ccccc12)C(=O)N[C@@H](CC(C)C)C(=O)N[C@H](C(=O)N[C@@H](C)C(=O)NCC(=O)NCC(=O)N1CCC[C@H]1C(=O)N[C@@H](CO)C(=O)N[C@@H](CO)C(=O)NCC(=O)N[C@@H](C)C(=O)N1CCC[C@H]1C(=O)N1CCC[C@H]1C(=O)N1CCC[C@H]1C(=O)N[C@@H](CO)C(N)=O)[C@@H](C)CC)C(C)C)[C@@H](C)CC [Compound 11]	8.2*** g	21.7* g	0	−13.3*** mM	−13.3*** mM	−13.6*** mM	−15.4*** mM	−4.7*** %	−6.1*** mM	3.6	−2.0*** %	6									
Compound 4: SEQ ID 07 polypeptide, Lys20 acylated with Moiety A (Y[Nva]EGTFTSDYSI[Nva]LDKIAQK(Moiety A)AFVQWLIAGGPSSGAPPPS-NH2; not fully specified; reading uncertain)																					Cumulative food Intake (g) 0-48 hr. vs. Baseline, Mean (Study 2, db/db mice): 4.6*** g; Cumulative food Intake (g) 0-96 hr. vs. Baseline, Mean (Study 2, db/db mice): 14.4*** g; Delta Blood Glucose (mM) Mean (Study 2, db/db mice, 0 hr (baseline)): 0 mM; Delta Blood Glucose (mM) Mean (Study 2, db/db mice, 4 hr): −10.4*** mM; Delta Blood Glucose (mM) Mean (Study 2, db/db mice, 8 hr): −13.3*** mM; Delta Blood Glucose (mM) Mean (Study 2, db/db mice, 12 hr): −13.8*** mM; Delta Blood Glucose (mM) Mean (Study 2, db/db mice, 24 hr): −4.9* mM; Body Wt. Change (%) 48 hr. vs. Baseline, Mean (Study 2, db/db mice, 48 hr): −3.8*** %; Delta Blood Glucose (mM) Mean (Study 2, db/db mice, 48 hr): −3.7* mM; Delta Blood Glucose (mM) Mean (Study 2, db/db mice, 72 hr): 0.2 mM; Body Wt. Change (%) 96 hr. vs. Baseline, Mean (Study 2, db/db mice, 96 hr): −1.9** %; Delta Blood Glucose (mM) Mean (Study 2, db/db mice, 96 hr): -1.9 mM; blood glucose reduction [2]: statistically significant blood glucose reduction upto 96 hr post treatment; body weight reduction [2]: statistically significant reduction in food intake and body weight; reduction in food consumption [2]: statistically significant reduction in food intake
Compound 8: SEQ ID 08 polypeptide, C-terminal Lys40 acylated with Moiety A (Y[Aib]EGTFTSDYSI[Nva]LEKIAAQEFVNWLLAGGPSSGAPPPSK(Moiety A)-NH2; reading uncertain)													4.0*** g	13.9*** g	0	−13.6*** mM	−13.6*** mM	−13.6*** mM	−8.5*** mM	−3.1*** %	Delta Blood Glucose (mM) Mean (Study 3, db/db mice, 48 hr): −5.6* mM; Delta Blood Glucose (mM) Mean (Study 3, db/db mice, 72 hr): -1.8 mM; Body Wt. Change (%) 96 hr. vs. Baseline, Mean (Study 3, db/db mice, 96 hr): −2.8*** %; Delta Blood Glucose (mM) Mean (Study 3, db/db mice, 96 hr): -0.6 mM
Compound 9: SEQ ID 09 polypeptide (C-terminal Arg, free acid), Lys20 acylated with Moiety A (Y[Aib]EGTFTSDYSI[Nva]LDKIAQK(Moiety A)AFVQWLIAGGPSSGAPPPSR-OH; reading uncertain)													4.2*** g	16.7*** g	0	−13.1*** mM	−12.7*** mM	−12.1*** mM	−8.7*** mM	−3.4*** %	Delta Blood Glucose (mM) Mean (Study 3, db/db mice, 48 hr): −7.1*** mM; Delta Blood Glucose (mM) Mean (Study 3, db/db mice, 72 hr): −5.6* mM; Body Wt. Change (%) 96 hr. vs. Baseline, Mean (Study 3, db/db mice, 96 hr): −3.8*** %; Delta Blood Glucose (mM) Mean (Study 3, db/db mice, 96 hr): 0 mM
Compound 12: SEQ ID 12 polypeptide, Lys20 acylated with Moiety A (Y[Aib]EGTFTSDYSIILDKIAQK(Moiety A)AFVQWLIAGGPSSGAPPPS-NH2; reading uncertain)	10.2* g	26.0 g	0	−14.6*** mM	−14.8*** mM	−14.9*** mM	−4.8** mM	−3.0*** %	2.5 mM	3.9	−0.4%	6.8									
